# According to ChEMBL document CHEMBL1131969, “Quinoline-2,4-dicarboxylic acids: synthesis and evaluation as inhibitors of the glutamate vesicular transport system” (Bioorg Med Chem Lett, 1999):
# How the values were obtained:
# [1] = Compound was evaluated for the kinetic parameter (Km); format: ADME
# [2] = Compound was evaluated for the kinetic parameter Vmax (maximum velocity); format: ADME
compound,measurement,setting,value
N[C@@H](CCC(=O)O)C(=O)O [GLUTAMIC ACID],Km,[1],1.65 µM
same,Vmax,[2],18.3 pM/min/mg
